pIC50: −log10 of the molar value. Several values for one entry are separate records, joined by “and”; a condition that tells them apart may be missing. Identical values can stand only once.

This experiment has as its system DMS-114 complex spheroids with HUVEC/MSC, growth % test/control. As to the kind of experiment: Anticancer human tumor DMS-114 cell line growth inhibition [AhR].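 For all read-outs here: spheroids exposed to agents for 7 days before readout.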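 For viability, T/C: 100% = DMSO vehicle control wells.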 The note with it: for viability, T/C: stronger effect = lower value; for pIC50: curve of compound. From the text:
Multicellular complex tumor spheroid response to aryl hydrocarbon receptor antagonists in combination with a variety of drugs and investigational agents in selected tumor cell lines
The current study was undertaken to assess response to aryl hydrocarbon receptor antagonists in combination with standard-of-care drugs and investigational agents in solid tumor complex spheroid models. Complex spheroids include a stromal component modeled by human endothelial cells (HUVEC) and fibroblasts modeled by human mesenchymal stem cells (MSCs). The concentration ranges selected for each drug and investigational agent were based upon clinically achievable concentrations if the clinical Cmax of the agent was known.
Compounds. The drugs and investigational agents: BAY 2416964 (NSC825713), GNF351 (NSC835774), CH-223191 (NSC835775), CPI-455 (NSC825282), aza-TdCyd (NSC777586), decitabine (NSC127716), belinostat (NSC758774), entinostat (NSC756642), pevonedistat (NSC761192), tazemetostat (NSC777109), talazoparib (NSC765396), olaparib (NSC753686), selinexor (NSC780203), nedisertib (M3814, NSC802822), bortezomib (NSC756655), venetoclax (NSC766270), doxorubicin (NSC123127), elimusertib (BAY189344, NSC800525), ceralasertib (AZD6738, NSC777638), TAK-243 (NSC785004), alisertib (NSC759677), etoposide (NSC141540), topotecan (NSC609699), eribulin (NSC707389), gemcitabine (NSC613327), carboplatin (NSC241240), cisplatin (NSC119875), and SN-38 (NSC673596) were obtained from the National Cancer Institute (NCI) Developmental Therapeutics Program Chemical Repository (32). The FDA-approved anticancer drug set is available from the Developmental Therapeutics Program at https://dtp.cancer.gov/organization/dscb/obtaining/available plates.htm. […] The stock solutions were prepared in dimethyl sulfoxide (DMSO, Sigma-Aldrich, St. Louis, MO, cat. D2650), except for the platinum compounds which were prepared in saline (Quality Biological, Gaithersburg, MD, cat. 114-055-101), at 800-fold the tested concentration and stored at -70 degrees C prior to their use. All drugs and investigational agents were tested over a range starting from a high concentration at or near the clinical Cmax and decreasing in half-log increments. If the clinical Cmax for an agent had not been determined, the highest concentration tested was 10 microM (Table 1).
Cell Culture. All cells were maintained in an incubator at 37 degrees C and 5% CO2 with 95% humidity. The PDC lines were cultured according to standard operating procedures established by the NCI PDMR (https://pdmr.cancer.gov). Briefly, all PDCs were thawed and cultured in Matrigel-coated flasks prepared with a working solution of 1X Ham's F-12 nutrient mix, without supplementation (Invitrogen, Waltham, MA, cat. 11765054), 100 U/mL penicillin-streptomycin (Invitrogen, cat. 15140122), and 2.5% Matrigel (Corning Inc., Corning, NY, cat. 354248) for the first three passages. All PDCs were cultured in complete DMEM/F-12 media containing advanced DMEM/F-12 (Invitrogen, cat. 12634028), 4.9% defined fetal bovine serum, heat inactivated (HyClone Laboratories Inc., Logan, UT, cat. SH30070.03HI), 389 ng/mL hydrocortisone (Sigma-Aldrich, cat. H4001), 9.7 ng/mL human EGF recombinant protein (Invitrogen, cat. PHG0313), 23.4 microg/mL adenine (Sigma-Aldrich, cat. A2786), 97.3 U/mL penicillin-streptomycin (Invitrogen, cat. 15140122), 1.9 mM L-glutamine (Invitrogen, cat. 25030081), and 9.7 microM Y-27632 dihydrochloride (Tocris Bioscience, Bristol, United Kingdom, cat. 1254). The PDCs were cultured in complete DMEM/F12 media without 10 microM Y-27632 dihydrochloride for at least two passages prior to the screen. The established cell lines NCI-H1341 and […] were cultured in DMEM/F-12, HEPES (Invitrogen, cat. 11330032), 5% defined fetal bovine serum (HyClone Laboratories Inc., cat. SH30070.03), ITS premix universal culture supplement [insulin (5 microg/mL), transferrin (5 microg/mL), and selenious acid (5 ng/mL)] […]

What is called viability, T/C is the result in the treated group divided by that in the control group, in per cent. Usually pIC50 stands for the negative decadic logarithm of the IC50, by convention in mol/L. With `Cn1ncnc1C1c2n[nH]c(=O)c3cc(F)cc(c23)NC1c1ccc(F)cc1` (stereo not drawn), the pIC50 was under 7.00. Further, the viability, T/C (compound 0.000316 µM) was 100% and 96.9% and 109%. Also, under “compound 0.001 µM”, the viability, T/C is 98.4% and 102% and 98%. Besides, the viability, T/C (compound 0.00316 µM) is 95.9% and 96.9% and 99.1%. The viability, T/C (compound 0.01 µM) was 96% and 100% and 99.3%. Besides, the viability, T/C (compound 0.0316 µM) was 93.1% and 107% and 99.9%. Moreover, the viability, T/C (compound 0.1 µM) is 76.3% and 101% and 86.2%.

Regarding `NS(=O)(=O)OCC1CC(n2ccc3c(NC4CCc5ccccc54)ncnc32)CC1O` (stereo not drawn), the pIC50 is 7.37 and 6.67 and 7.32. The viability, T/C (compound 0.0316 µM) was 56% and 124% and 59.6%. Moreover, the viability, T/C (compound 0.1 µM) is 31.8% and 84.4% and 33.5%. Besides, the viability, T/C (compound 0.316 µM) is 17.6% and 31.9% and 17.2%. Moreover, the viability, T/C (compound 1 µM) is 6.55% and 22.7% and 10.3%. Moreover, under “compound 3.16 µM”, the viability, T/C is 4.52% and 19.9% and 8.23%. The viability, T/C (compound 10 µM) is 4.43% and 14.3% and 5.53%.

With `Nc1ccccc1NC(=O)c1ccc(CNC(=O)OCc2cccnc2)cc1`, the pIC50 is 6.20 and 5.60 and 6.18. Besides, the viability, T/C (compound 0.0316 µM) is 89.7% and 96.8% and 108%. Besides, the viability, T/C (compound 0.1 µM) is 85% and 94.1% and 92.8%. Further, the viability, T/C (compound 0.316 µM) was 68% and 90.9% and 67.3%. The viability, T/C (compound 1 µM) was 37.8% and 74.1% and 40.4%. In addition, the viability, T/C (compound 3.16 µM) is 15.6% and 44% and 22.9%. Also, under “compound 10 µM”, the viability, T/C is 8.33% and 24.4% and 14.5%.

`Nc1ccn(C2OC(CO)C(O)C2(F)F)c(=O)n1` (stereo not drawn): the pIC50 is over 7.50. Further, the viability, T/C (compound 0.0316 µM) is 9.8% and 13.2% and 25.1%. Also, the viability, T/C (compound 0.1 µM) was 8.85% and 12.6% and 26.8%. The viability, T/C (compound 0.316 µM) is 9.58% and 12.2% and 25.9%. Besides, the viability, T/C (compound 1 µM) was 10.4% and 11% and 25.1%. The viability, T/C (compound 3.16 µM) is 9.16% and 11.7% and 24.5%. In addition, under “compound 10 µM”, the viability, T/C is 9.05% and 10.8% and 25.4%.

On to `Nc1ncn(C2CC(O)C(CO)O2)c(=O)n1` (stereo not drawn), for which the pIC50 was under 6.00. In addition, where the note is “compound 0.00316 µM”, the viability, T/C is 91.9% and 109% and 106%. Moreover, the viability, T/C (compound 0.01 µM) is 97.6% and 110% and 95%. Further, the viability, T/C (compound 0.0316 µM) is 105% and 108% and 88.3%. Further, the viability, T/C (compound 0.1 µM) is 83.8% and 112% and 109%. Further, under “compound 0.316 µM”, the viability, T/C was 66.8% and 110% and 78%. In addition, under “compound 1 µM”, the viability, T/C was 53.1% and 110% and 66.1%.

On to `Nc1ncn(C2CC(O)C(CO)S2)c(=O)n1` (stereo not drawn), for which the pIC50 is 6.65 and < 6.52. Besides, the viability, T/C (compound 0.000949 µM) is 97.3% and 101% and 110%. Besides, the viability, T/C (compound 0.003 µM) was 108% and 102% and 116%. Also, the viability, T/C (compound 0.00949 µM) was 112% and 104% and 102%. Besides, the viability, T/C (compound 0.03 µM) was 88.5% and 101% and 88.9%. In addition, where the note is “compound 0.0949 µM”, the viability, T/C is 60.1% and 107% and 84.8%. Further, the viability, T/C (compound 0.3 µM) is 46.1% and 86.9% and 52.9%.

With `O=C(C=Cc1cccc(S(=O)(=O)Nc2ccccc2)c1)NO`, the pIC50 is 6.37 and 5.76 and 6.36. Besides, the viability, T/C (compound 0.0316 µM) was 88.4% and 108% and 83%. For the same molecule, the viability, T/C (compound 0.1 µM) is 85.7% and 103% and 74.2%. For the setting “compound 0.316 µM”, the viability, T/C is 54.9% and 91% and 60%. For the same molecule, the viability, T/C (compound 1 µM) is 29.6% and 69.9% and 26.9%. The viability, T/C (compound 3.16 µM) was 13.4% and 26.4% and 15.6%. Further, under “compound 10 µM”, the viability, T/C was 9.67% and 29.7% and 13.6%.

For `O=C(C=Cn1cnc(-c2cc(C(F)(F)F)cc(C(F)(F)F)c2)n1)NNc1cnccn1`, the pIC50 is 6.72 and 6.05 and 6.66. Also, the viability, T/C (compound 0.00949 µM) is 106% and 109% and 113%. In addition, the viability, T/C (compound 0.03 µM) is 96.6% and 110% and 97.4%. The viability, T/C (compound 0.0949 µM) was 64.5% and 108% and 80.5%. Moreover, the viability, T/C (compound 0.3 µM) was 40.7% and 87.3% and 37.6%. Besides, the viability, T/C (compound 0.949 µM) is 15% and 48.7% and 18.4%. The viability, T/C (compound 3 µM) was 5.6% and 17.9% and 7.48%.

Take `O=C(c1cc(Cc2n[nH]c(=O)c3ccccc23)ccc1F)N1CCN(C(=O)C2CC2)CC1`: the pIC50 was under 5.00. The viability, T/C (compound 0.0316 µM) is 106% and 111% and 105%. The viability, T/C (compound 0.1 µM) is 110% and 111% and 95.4%. The viability, T/C (compound 0.316 µM) was 97.3% and 106% and 87.7%. Moreover, the viability, T/C (compound 1 µM) was 98% and 103% and 96.3%. The viability, T/C (compound 3.16 µM) is 82.4% and 108% and 76.7%. For the same molecule, the viability, T/C (compound 10 µM) is 50.8% and 105% and 60.7%.
